Earlier results, collected in US20230277473A1 (priority 2023, published 2023).

Assays:
[1] = in vivo

Row | SMILES | solubility in water | half-life [1] [h]
1 | Cc1nc2n(c(=O)c1CCN1CCC(c3noc4cc(F)ccc34)CC1)CCCC2 [RPD, risperidone] | almost insoluble in water | 
2 | Cc1nc2n(c(=O)c1CCN1CCC(c3noc4cc(F)ccc34)CC1)CCCC2O (centres unmarked) [9-hydroxyrisperidone] |  | 21
